Measurements published in patent US10123537B2, “Amide compound or salt thereof, agricultural and horticultural insecticide and microbicide comprising the compound, and method for using the insecticide and microbicide” (NIHON NOHYAKU CO., LTD., priority 2013, dated 2018).

What was measured:
Tetranychus urticae = assay: Acaricidal test on Tetranychus urticae; assay type: in vivo; conditions: 500 ppm, kidney bean leaf disks dipped about 30 seconds, female adults, two days later, 25° C.
Excerpt: Acaricidal Test on Tetranychus urticae

Meloidogyne incognita = assay: Nematicidal test on Meloidogyne incognita; assay type: in vivo; conditions: 500 ppm, 1 mL soil drench, potted melon seedlings, 8 days after inoculation
Protocol: Nematicidal Test on Meloidogyne incognita
Agrochemical formulations containing different amide compounds represented by the general formula (I) of the present invention or salts thereof as an active ingredient were separately diluted to a concentration of 500 ppm. The diluted agrochemical formulations (1 mL) were drenched into the soil around the foot of potted melon seedlings. At one day after the agrochemical treatment, an aqueous suspension of Meloidogyne incognita (about 500 worms/mL) was drenched into the soil for inoculation both in a treatment plot and in a non-treatment plot. The inoculated pots were kept in a greenhouse at 25° C. At 8 days after the inoculation, the root of each seedling was washed with water, the number of root nodules was counted, and the nematicidal effect was evaluated according to the following criteria.
A: the percentage of the number of root nodules relative to the non-treatment plot is 0%.
B: the percentage of the number of root nodules relative to the non-treatment plot is 1 to 10%.
C: the percentage of the number of root nodules relative to the non-treatment plot is 11 to 20%.
D: the percentage of the number of root nodules relative to the non-treatment plot is 21 to 50%.

[1] = tested on: wheat powdery mildew fungus Erysiphe graminis; conditions: 200 ppm, foliar application to wheat plants, 10 mL per pot, 7 days after inoculation
Laodelphax striatella = assay: Insecticidal test on Laodelphax striatella; assay type: in vivo; conditions: Laodelphax striatellus, 192 h, rice seedlings dipped 30 seconds, 3rd-instar larvae, 8 days after inoculation, read-out: insecticidal effect (corrected mortality rate) activity level
Excerpt: Insecticidal Test on Laodelphax striatella
The amide compounds represented by the general formula (I) of the present invention or salts thereof were separately dispersed in water and diluted to 500 ppm, and rice plant seedlings (variety: Nihonbare) were dipped in the agrochemical dispersions for 30 seconds. After air-dried, each seedling was put into a separate glass test tube and inoculated with ten 3rd-instar larvae of Laodelphax striatella, and then the glass test tubes were capped with cotton plugs. At 8 days after the inoculation, the numbers of surviving larvae and dead larvae were counted, the corrected mortality rate was calculated according to the formula shown below, and the insecticidal effect was evaluated according to the criteria of Test Example 1. Corrected mortality rate (%)=100×(Survival rate in a non-treatment plot−Survival rate in a treatment plot)/Survival rate in a non-treatment plot

Plutella xylostella = assay: Insecticidal test on Plutella xylostella; assay type: in vivo; conditions: 144 h, Chinese cabbage seedlings with laid eggs dipped about 30 seconds, 25° C., 6 days after dip treatment, read-out: insecticidal effect (corrected mortality rate, hatched larvae) activity level
Excerpt: Insecticidal Test on Plutella xylostella
Adults of Plutella xylostella were released onto Chinese cabbage seedlings and allowed to lay eggs thereon. At 2 days after the release of the adults, the Chinese cabbage seedlings with laid eggs were dipped for about 30 seconds in agrochemical formulations diluted to 500 ppm, each of which contained a different amide compound represented by the general formula (I) of the present invention as an active ingredient. After air-dried, the seedlings were kept in a thermostatic chamber at 25° C. At 6 days after the dip treatment, the number of hatched larvae per plot was counted, the mortality rate was calculated according to the formula shown below, and the insecticidal effect was evaluated according to the criteria of Test Example 1. This test was conducted in triplicate using 10 adults of Plutella xylostella per plot. Corrected mortality rate (%)=100×(Number of hatched larvae in a non-treatment plot−Number of hatched larvae in a treatment plot)/Number of hatched larvae in a non-treatment plot

SMILES	acaricidal effect (corrected mortality rate) activity level (Tetranychus urticae)	nematicidal effect (number of root nodules relative to non-treatment plot) activity level (Meloidogyne incognita)	control effect (control rate, lesion area) activity level [1]	mortality at 500 ppm (Laodelphax striatella)	mortality at 500 ppm (Plutella xylostella)
CCS(=O)(=O)c1cc(C(F)(F)F)ccc1C(=O)N(C)c1ccc(C(F)(F)F)cc1 [Compound 3-3]	D or higher	D or higher	D or higher		
CCSc1cc(C(F)(F)F)ccc1C(=O)N(C)c1ccc(C(F)(F)F)cn1 [Compound 1-1, 2-(ethylthio)-N-methyl-4-(trifluoromethyl)-N-(5-(trifluoromethyl)pyridin-2-yl)benzamide]	D or higher	D or higher		100%	100%
CC[S+]([O-])c1cc(C(F)(F)F)ccc1C(=O)N(c1ccc(C(F)(F)F)cn1)C1CC1 (stereo not drawn) [Compound 1-8]	D or higher	D or higher			
CCSc1cc(C(F)(F)F)ccc1C(=O)N(CC)c1ccc(C(F)(F)F)cn1 [Compound 1-4]	D or higher	D or higher			
CCS(=O)(=O)c1cc(C(F)(F)F)ccc1C(=O)N(C)c1ccc(C(OC)(C(F)(F)F)C(F)(F)F)cc1 [Compound 3-6]	D or higher	D or higher	D or higher		
CC[S+]([O-])c1cc(C(F)(F)F)ccc1C(=O)N(C)c1ccc(C(F)(F)F)cn1 (stereo not drawn) [Compound 1-2, 2-(ethylsulfinyl)-N-methyl-4-(trifluoromethyl)-N-(5-(trifluoromethyl)pyridin-2-yl)benzamide]		D or higher		100%	100%
CCN(C(=O)c1ccc(C(F)(F)F)cc1[S+]([O-])CC)c1ccc(C(F)(F)F)cn1 (stereo not drawn) [Compound 1-5]	D or higher	D or higher	D or higher		
CCSc1cc(C(F)(F)F)ccc1C(=O)N(C)c1ccc(C(C(F)(F)F)C(F)(F)F)cc1 [Compound 3-10]	D or higher	D or higher			
CCN(C(=O)c1ccc(C(F)(F)F)cc1S(=O)(=O)CC)c1ccc(C(F)(F)F)cn1 [Compound 1-6]	D or higher	D or higher	D or higher		
CCS(=O)(=O)c1cc(C(F)(F)F)ccc1C(=O)N(C)c1ccc(C(F)(F)F)cn1 [Compound 1-3, 2-(ethylsulfonyl)-N-methyl-4-(trifluoromethyl)-N-(5-(trifluoromethyl)pyridin-2-yl)benzamide]		D or higher		100%	100%
CC[S+]([O-])c1cc(C(F)(F)F)ccc1C(=O)N(C)c1ccc(C(F)(F)F)cc1 (stereo not drawn) [Compound 3-2]	D or higher	D or higher			
